According to BindingDB's records for doi:10.1021/jm00095a029 (Warner-Lambert, 1992):
Non-standard residues stand in square brackets, D forms with d. Residues, ends and D or L forms follow the SMILES beside them.

Test system: Endothelin A receptor
Assay: ChEBML_63192

IC50: 400 nM
SMILES: CC[C@H](C)[C@H](NC(=O)[C@H](CC(=O)O)NC(=O)[C@H](CC(C)C)NC(=O)[C@@H](Cc1ccc(O)cc1)NC(C)=O)C(=O)N[C@H](C(=O)N[C@@H](Cc1c[nH]c2ccccc12)C(=O)O)[C@@H](C)CC (Ac-[dY]LDIIW-OH)
